Series [1] is described as follows: Physical stability assessment in 0.1N HCl at 37° C. (PLM). Format: physicochemical. As for the experimental part:
For the assessment of physical stability for samples in a 0.1N HCl solution maintained at 37° C., observations were made and microscopy images were acquired using polarized light at different time points including 0, 6 and 24 hrs, as summarized in Table 6. Based on the absence of birefringent particles when samples were observed by PLM, dispersions prepared with HPMC-AS HG and HPMC-AS MG display the highest physical stability under this particular stress condition.

The nature of series [2]: Physical stability assessment at 40° C./75% RH for 7 d (PLM, mDSC). Format: physicochemical. The settings on record: after 40° C./75% RH for 7 d. On the procedure:
Each of the samples remained as irregular aggregates without birefringence/extinctions after stressed at 40° C./75% RH condition for 7 days. […] All of samples display a single apparent Tg at approximately 148° C.

Series [3] is described as follows: Physical stability assessment at 60° C./dry for 7 d (PLM). The settings on record: after 60° C./dry for 7 d. Format: physicochemical. The source says:
Each of the samples remained as irregular aggregates without birefringence/extinctions after stressed at this condition for 7 days.

Series [4] in a line: Dog pharmacokinetics of API, amorphous and solid dispersion capsules, cross-over. Set-up: species or system male beagle dogs. The settings on record: male, beagle, in vivo, po, 2200 mg. On the procedure:
Presented herein are dog pharmacokinetics (PK) studies comparing various forms of rifaximin. […] In the SD dosage form, the polymer used was HPMC-AS at a drug to polymer ratio of 50:50. The formulation also comprised pluronic F127 and crosscarmellose sodium (see Example 4). […] Blood was collected at timed intervals for 24 h after dosage administration, and plasma was harvested for LC-MS/MS analysis.

Another series in a line: in vivo. Particulars: dog, po, 2200 mg.

“Also recorded” adds a separate entry of the source.

On to `CO[C@H]1/C=C/O[C@@]2(C)Oc3c(C)c(O)c4c(O)c(c5c(nc6cc(C)ccn65)c4c3C2=O)NC(=O)/C(C)=C\C=C\[C@H](C)[C@H](O)[C@@H](C)[C@@H](O)[C@@H](C)[C@H](OC(C)=O)[C@@H]1C` [(100:0) Rifaximin-only, Rifaximin], for which the PLM results was “clear view of B/E particles; also recorded: agg., no B/E + a few B/E particles” in series [1] (6 hrs); “agg., no B/E + a few B/E particles” in series [1] (24 hrs); “agg., irr., no B/E” in series [1] (time 0); “agg., irr., no B/E” in series [2]; “agg., irr., no B/E” in series [3]. Further, in series [1] (PLM), the “time at which crystallization (birefringence/extinctions) was observed” value is 6 h.

Take `CO[C@H]1/C=C/O[C@@]2(C)Oc3c(C)c(O)c4c(O)c(c5c(nc6cc(C)ccn65)c4c3C2=O)NC(=O)/C(C)=C\C=C\[C@H](C)[C@H](O)[C@@H](C)[C@@H](O)[C@@H](C)[C@H](OC(C)=O)[C@@H]1C` [API, Rifaximin]: in series [4], the “AUCINF_obs, mean” value came out at 104 ng·h/mL; the “AUC_0-24, mean” value was 82 ng·h/mL; the “AUClast, mean” value stood at 81 ng·h/mL; the “Cmax, mean” value is 44.93 ng/mL. In series [4] (Half-life, geometric mean), the half-life was 6.98 h. For the same molecule, the Tmax in series [4] (Tmax, median) stood at 1 h.

Regarding `CO[C@H]1/C=C/O[C@@]2(C)Oc3c(C)c(O)c4c(O)c(c5c(nc6cc(C)ccn65)c4c3C2=O)NC(=O)/C(C)=C\C=C\[C@H](C)[C@H](O)[C@@H](C)[C@@H](O)[C@@H](C)[C@H](OC(C)=O)[C@@H]1C` [amorph, Rifaximin], in “in vivo”, the AUC is 3910 ng·h/mL, the AUC(0-inf) was found to be 4030 ng·h/mL, the Cmax turned out to be 1390 ng/mL and the Tmax was found to be 2 h. Also, in series [4], the “AUCINF_obs, mean” value is 4027 ng·h/mL; the “AUC_0-24, mean” value is 3908 ng·h/mL; the “AUClast, mean” value turned out to be 3908 ng·h/mL; the “Half-life, geometric mean” value was determined as 5.88 h. For the same molecule, in series [4], the Tmax worked out at 1 h and the “mean exposure (AUCinf) as compared with API” value was roughly 40 fold.

For orientation: half-life means the time needed for the level to fall by half in the phase considered. One may read the Tmax as the time from dosing to the highest level. For orientation: AUC means the area under the concentration-time curve, a measure of exposure. Broadly, the AUC(0-inf) is the area under the concentration-time curve extrapolated to infinity. Lower therefore signals less exposure. By Cmax is commonly meant the maximum level reached in the sampled fluid or tissue.
